ChEMBL document CHEMBL4261637, “Discovery of a non-toxic [1,2,4]triazolo[1,5-a]pyrimidin-7-one (WS-10) that modulates ABCB1-mediated multidrug resistance (MDR)” (Bioorg Med Chem, 2018)
Active and inactive are the calls of the source. The rule behind the calls is not given here.

How the values were obtained:
SW-620 [1] = test: Potentiation of doxorubicin-induced cytotoxicity in human SW620 cells assessed as fold reduction in doxorubicin IC50 at 4 uM after 72 hrs by MTT assay relative to doxorubicin alone; type: functional
SW-620 [2] = test: Potentiation of paclitaxel-induced cytotoxicity in human SW620 cells assessed as fold reduction in paclitaxel IC50 at 4 uM after 72 hrs by MTT assay relative to paclitaxel alone; type: functional
HEK-293T [3] = test: Potentiation of paclitaxel-induced cytotoxicity in human HEK293T/NC cells assessed as fold reduction in paclitaxel IC50 at 4 uM after 72 hrs by MTT assay relative to paclitaxel; type: functional
SW-620 [4] = test: Potentiation of cisplatin-induced cytotoxicity in human SW620 cells assessed as fold reduction in cisplatin IC50 at 4 uM after 72 hrs by MTT assay relative to cisplatin alone; type: functional
HEK-293T [5] = test: Potentiation of cisplatin-induced cytotoxicity in human HEK293T/NC cells assessed as fold reduction in cisplatin IC50 at 4 uM after 72 hrs by MTT assay relative to cisplatin; type: functional
HEK-293T [6] = test: Potentiation of doxorubicin-induced cytotoxicity in human HEK293T/NC cells assessed as fold reduction in doxorubicin IC50 at 4 uM after 72 hrs by MTT assay relative to doxorubicin; type: functional
SW-620 [7] = test: Potentiation of doxorubicin-induced cytotoxicity in human SW620 cells assessed as fold reduction in doxorubicin IC50 at 10 uM after 72 hrs by MTT assay relative to doxorubicin alone; type: functional
SW-620 [8] = test: Potentiation of paclitaxel-induced cytotoxicity in human SW620 cells assessed as fold reduction in paclitaxel IC50 at 20 uM after 72 hrs by MTT assay relative to paclitaxel alone; type: functional
SW620/AD300 [9] = test: Effect on subcellular localization of ABCB1 in human SW620/AD300 cells at 10 to 20 uM after 72 hrs by Hoechst 33342 staining-based immunofluorescence assay; type: functional, cell-based
TE-1 = test: Cytotoxicity against human TE1 cells at 10 to 20 uM after 72 hrs by MTT assay; type: cell-based; conditions: te-1, 72 h
HEK-293T [10] = test: Potentiation of cisplatin-induced cytotoxicity in human HEK293T/NC cells assessed as fold reduction in cisplatin IC50 at 10 uM after 72 hrs by MTT assay relative to cisplatin; type: functional
MGC-803 = test: Cytotoxicity against human MGC803 cells at 10 to 20 uM after 72 hrs by MTT assay; type: cell-based; conditions: mgc-803, 72 h
ECa-109 cell line = test: Cytotoxicity against human EC109 cells at 10 to 20 uM after 72 hrs by MTT assay; type: cell-based; conditions: eca-109, 72 h
A549 = test: Cytotoxicity against human A549 cells at 10 to 20 uM after 72 hrs by MTT assay; type: cell-based; conditions: a549, 72 h
SW-620 [11] = test: Potentiation of paclitaxel-induced cytotoxicity in human SW620 cells assessed as fold reduction in paclitaxel IC50 at 10 uM after 72 hrs by MTT assay relative to paclitaxel alone; type: functional
HEK-293T [12] = test: Potentiation of paclitaxel-induced cytotoxicity in human HEK293T/NC cells assessed as fold reduction in paclitaxel IC50 at 20 uM after 72 hrs by MTT assay relative to paclitaxel; type: functional
HEK-293T [13] = test: Potentiation of doxorubicin-induced cytotoxicity in human HEK293T/NC cells assessed as fold reduction in doxorubicin IC50 at 10 uM after 72 hrs by MTT assay relative to doxorubicin; type: functional
SW-620 [14] = test: Potentiation of cisplatin-induced cytotoxicity in human SW620 cells assessed as fold reduction in cisplatin IC50 at 20 uM after 72 hrs by MTT assay relative to cisplatin alone; type: functional
SGC-7901 = test: Cytotoxicity against human SGC7901 cells at 10 to 20 uM after 72 hrs by MTT assay; type: cell-based; conditions: sgc-7901, 72 h
HEK-293T [15] = test: Potentiation of doxorubicin-induced cytotoxicity in human HEK293T/NC cells assessed as fold reduction in doxorubicin IC50 at 20 uM after 72 hrs by MTT assay relative to doxorubicin; type: functional
[16] = target: T1, ATP-dependent translocase ABCB1 (Homo sapiens, UniProt P08183); test: Inhibition of ABCB1 in human SW620/AD300 cells assessed as intracellular accumulation of paclitaxel at 10 to 20 uM after 72 hrs by UPLC analysis; type: cell-based
SW-620 [17] = test: Potentiation of doxorubicin-induced cytotoxicity in human SW620 cells assessed as fold reduction in doxorubicin IC50 at 20 uM after 72 hrs by MTT assay relative to doxorubicin alone; type: functional
SW-620 [18] = test: Potentiation of cisplatin-induced cytotoxicity in human SW620 cells assessed as fold reduction in cisplatin IC50 at 10 uM after 72 hrs by MTT assay relative to cisplatin alone; type: functional
SW620/AD300 [19] = test: Effect on ABCB1 expression in human SW620/AD300 cells at 10 to 20 uM by Western blot analysis; type: functional, cell-based
SW620/AD300 [20] = test: Effect on ABCB1 expression in human SW620/AD300 cells at 20 uM up to 96 hrs by Western blot analysis; type: functional, cell-based
[21] = target: T1, ATP-dependent translocase ABCB1; test: Binding affinity to ABCB1 in human SW620/AD300 cells assessed as thermal stabilization incubated for 30 mins at 43 to 80 degC by CETSA; type: cell-based; conditions: 0.5 h
HEK-293T [22] = test: Potentiation of paclitaxel-induced cytotoxicity in human HEK293T/NC cells assessed as fold reduction in paclitaxel IC50 at 10 uM after 72 hrs by MTT assay relative to paclitaxel; type: functional

T1 sequence (P08183 whole entry): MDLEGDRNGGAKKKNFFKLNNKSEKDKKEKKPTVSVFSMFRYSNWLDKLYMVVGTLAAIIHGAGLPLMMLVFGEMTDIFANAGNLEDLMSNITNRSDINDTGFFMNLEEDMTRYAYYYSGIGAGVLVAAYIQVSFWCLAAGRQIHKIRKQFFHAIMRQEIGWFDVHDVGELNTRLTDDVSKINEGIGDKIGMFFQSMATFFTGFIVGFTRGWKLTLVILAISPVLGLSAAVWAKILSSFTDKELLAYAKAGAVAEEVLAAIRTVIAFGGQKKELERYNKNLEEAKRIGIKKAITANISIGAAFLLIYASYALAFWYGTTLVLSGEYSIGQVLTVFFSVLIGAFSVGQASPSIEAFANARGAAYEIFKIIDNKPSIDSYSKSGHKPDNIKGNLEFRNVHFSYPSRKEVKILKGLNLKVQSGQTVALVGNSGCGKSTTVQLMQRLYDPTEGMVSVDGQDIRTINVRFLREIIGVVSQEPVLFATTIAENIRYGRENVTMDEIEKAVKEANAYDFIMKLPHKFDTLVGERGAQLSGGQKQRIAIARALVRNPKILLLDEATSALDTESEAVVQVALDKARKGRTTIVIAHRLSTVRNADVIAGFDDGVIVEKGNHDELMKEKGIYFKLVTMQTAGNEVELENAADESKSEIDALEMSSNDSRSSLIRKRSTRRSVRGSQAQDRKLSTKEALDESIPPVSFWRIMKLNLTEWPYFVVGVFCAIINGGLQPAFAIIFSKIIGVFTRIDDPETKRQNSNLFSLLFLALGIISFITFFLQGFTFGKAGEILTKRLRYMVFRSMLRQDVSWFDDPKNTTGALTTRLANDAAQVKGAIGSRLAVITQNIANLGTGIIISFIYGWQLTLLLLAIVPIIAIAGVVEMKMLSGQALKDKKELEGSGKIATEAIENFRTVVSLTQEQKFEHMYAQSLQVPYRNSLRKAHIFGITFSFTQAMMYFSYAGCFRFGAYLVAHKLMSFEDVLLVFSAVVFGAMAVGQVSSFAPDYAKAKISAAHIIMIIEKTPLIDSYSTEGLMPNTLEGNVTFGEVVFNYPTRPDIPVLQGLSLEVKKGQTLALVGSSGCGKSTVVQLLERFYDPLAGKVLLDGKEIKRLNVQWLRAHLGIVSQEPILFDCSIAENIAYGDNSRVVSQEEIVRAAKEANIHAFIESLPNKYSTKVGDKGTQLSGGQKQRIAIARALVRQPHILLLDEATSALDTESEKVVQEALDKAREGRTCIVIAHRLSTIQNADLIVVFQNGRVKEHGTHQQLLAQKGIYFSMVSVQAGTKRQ

In the case of `COc1ccc(CCN(C)CCCC(C#N)(c2ccc(OC)c(OC)c2)C(C)C)cc1OC` (configuration not stated), the “Ratio IC50” value (SW-620 [1]) is reported as 1.18, the “Ratio IC50” value (SW-620 [2]) is reported as 1.29 and the “Ratio IC50” value (HEK-293T [3]) is reported as 0.84. The “Ratio IC50” value (SW-620 [4]) was 1.1, the “Ratio IC50” value (HEK-293T [5]) was 0.89 and the “Ratio IC50” value (HEK-293T [6]) was 1.07.
`O=c1cc(-c2ccccc2)[nH]c2nc(SCc3nc4ccccc4[nH]3)nn12` was tested, and the “Ratio IC50” value (SW-620 [7]) was 1.17, the “Ratio IC50” value (SW-620 [8]) was 0.81 and the Activity (SW620/AD300 [9]) was “inactive”. The Activity (TE-1) was “Non-Toxic”, the “Ratio IC50” value (HEK-293T [10]) was 1.04 and the Activity (MGC-803) was “Non-Toxic”. For the same compound, the Activity (ECa-109 cell line) was “Non-Toxic”, the Activity (A549) was “Non-Toxic” and the “Ratio IC50” value (SW-620 [11]) was 1.2. The “Ratio IC50” value (HEK-293T [12]) was 0.83, the “Ratio IC50” value (HEK-293T [13]) was 1.14 and the “Ratio IC50” value (SW-620 [14]) was 0.97. The Activity (SGC-7901) was “Non-Toxic”, the “Ratio IC50” value (HEK-293T [15]) was 1.08 and the “inhibition (INH)” value [16] was “Active”. For the same compound, the “Ratio IC50” value (SW-620 [17]) was 1.14, the “Ratio IC50” value (SW-620 [18]) was 1.07 and the Activity (SW620/AD300 [19]) was “inactive”. The Activity (SW620/AD300 [20]) was “inactive”, the Activity [21] was “Active” and the “Ratio IC50” value (HEK-293T [22]) was 0.87.
